Experimental findings from patent US20070292492A1, “PHARMACEUTICAL FORMULATIONS FOR IONTOPHORETIC TETRACYCLINE ANTIBIOTIC DELIVERY” (priority 2006, published 2007) are described below.

The format of series [1] is in vitro ADME, hairless rat. How it is done: • Freshly excised full thickness hairless rat skin (approximately 1 mm thick) was mounted in between the donor and receptor compartments of the horizontal diffusion cells with the stratum corneum facing the donor compartment. • The receptor compartment contained phosphate buffer (4 ml) at pH 7.4, and the donor compartment contained one of the following tetracycline hydrochloride solutions (4 ml): water (pH 2.1, 37 mg/ml), citrate buffer (pH 3.0, 9 mg/ml), phosphate buffer (pH 8.0, 0.7 mg/ml), or Teorell buffer (pH 8.3, 5.9 mg/ml, pH 11.9: 20 mg/ml). • The apparatus was maintained at 32° C., with constant stirring in both the donor and receptor compartments using magnetic stir bars to maintain sink conditions. • Silver/Silver chloride electrodes were used for iontophoresis. The area of skin exposed to the donor was 0.64 cm^2. • Current densities of 0.2 and 0.3 mA/cm^2 were applied for 1 h; and current density of 0.4 mA/cm^2 was applied for 30 min, 1 h and 2 h. Samples were collected for a period of 10 h. Both anodal and cathodal iontophoresis were performed. • At predetermined intervals, 0.5 ml of sample was collected from the receptor chamber and replenished with 0.5 ml of phosphate buffer (pH7.4). Analysis of Tetracycline Hydrochloride: • Samples from the receptor chamber were analyzed for the amount of tetracycline hydrochloride using a Shimadzu HPLC with a reverse phase column (Phenomenex, Luna C18 column with 5μ pore size). • The composition of the mobile phase used was 0.01N oxalic acid and acetonitrile (75:25) at a flow rate of 0.8 ml/min using a detection wavelength of 360 nm. Results: • The cumulative amount of drug permeating through the skin passively at the end of 10 h was 1.7±0.45 μg/cm^2 (FIG. 1). • Iontophoresis improved the delivery of the drug across the skin. i) The cumulative amount permeated through the skin at the end of 10 h by anodal iontophoresis for 1 h was 11.18±2.02 μg/cm^2. ii) The cumulative amount of the drug delivered at the end of 10 h by cathodal iontophoresis for 1 h was 19.65±6.9 μg/cm^2 (FIGS. 1 and 2). The current density used was 0.4 mA/cm^2 in both the cases. • The cumulative amount of drug permeated through the skin increased with an increase in the current density. The cumulative amount of the drug permeated through the skin over 10 hours increased from 5.85±0.72 μg/cm^2 to 19.65±6.9 μg/cm^2 with an increase in the current density from 0.2 mA/cm^2 to 0.4 mA/cm^2 (FIG. 3). • The amount of drug permeated through the skin increased with an increase in the duration of current application. […] For a donor concentration of 10 mg/ml, 22.11 μg/cm^2 of tetracycline hydrochloride permeated through the skin as compared to 8.25 μg/cm^2 delivered from a donor concentration of 2.5 mg/ml (FIG. 5). For all the above studies except anodal iontophoresis, tetracycline hydrochloride solution in borate buffer at pH 9.4 was employed. For anodal iontophoresis, tetracycline hydrochloride in citrate buffer at pH 3.0 has been used.

A short description of series [2]: In vivo intracutaneous microdialysis with cathodal iontophoresis. The settings on record: 10 mg/mL, pH ~9.3; cathodal iontophoresis 200-400 μA/cm^2 for 0.5-4 hours; 4 hours of application time. Details: species or system hairless rat. How it is done:
In vivo microdialysis studies were undertaken to determine the effect of current and time on the transdermal delivery of tetracycline using iontophoresis. The study placed a tetracycline formulation (10 mg/mL, pH ˜9.3) in a cartridge designed for iontophoresis. […] Cathodal iontophoresis current was varied from 200-400 μA/cm^2 for a period of 0.5-4 hours. The microdialysis dialysate samples collected were analyzed using HPLC. Potential skin irritation was monitored using chromameter, laser Doppler velocimetry (LDV) and transepidermal water loss (TEWL).

Where a name gives a salt, the structure may show the parent alone. Read-outs that look alike come from different tables or passages of the source.

Turning to `CN(C)[C@@H]1C(O)=C(C(N)=O)C(=O)[C@@]2(O)C(O)=C3C(=O)c4c(O)cccc4[C@@](C)(O)[C@H]3C[C@@H]12` [tetracycline hydrochloride], the “amount of tetracycline hydrochloride permeated through the skin” value in series [1] (hairless, rat, 2.5 mg/ml, pH 9.4) is on record as 8.25 μg/cm^2. For the same compound, the “amount of tetracycline hydrochloride permeated through the skin” value in series [1] (hairless, rat, 10 mg/ml, pH 9.4) is reported as 22.11 μg/cm^2. In series [1] (hairless, rat, 10 h, 9 mg/ml, pH 3), the “cumulative amount permeated through the skin at the end of 10 h by anodal iontophoresis” value came to 11.18±2.02 μg/cm^2. For the same compound, in series [1] (hairless, rat, 10 h, pH 9.4), the “cumulative amount of drug permeating through the skin passively at the end of 10 h” value came to 1.7±0.45 μg/cm^2, the “cumulative amount of the drug delivered at the end of 10 h by cathodal iontophoresis” value worked out at 19.65±6.9 μg/cm^2 and the “cumulative amount of the drug permeated through the skin over 10 hours” value came to 5.85±0.72 μg/cm^2. The “cumulative amount of drug permeated through the skin, cathodal iontophoresis compared to anodal iontophoresis or passive delivery” value in series [1] (pH 9.4) was “significantly increased”.
Regarding `CN(C)[C@@H]1C(O)=C(C(N)=O)C(=O)[C@@]2(O)C(O)=C3C(=O)c4c(O)cccc4[C@@](C)(O)[C@H]3C[C@@H]12` [tetracycline], the “tetracycline concentration in the skin by microdialysis as a function of duration of current application” value in series [2] is listed as “highest amount of tetracycline concentration”.
